The test system of one assay is rabbit aortic rings. As to the kind of experiment: Relaxation of phenylephrine-precontracted rabbit aortic rings. The assay is classed as cell-based.
Assay [1] deals with PDE (phosphodiesterase) in human platelets. As to the kind of experiment: Phosphodiesterase assay, soluble PDE from human platelets, cyclic GMP substrate. It counts as biochemical. The note with it: at 100 μM, n=3.
Description: Phosphodiesterase assay. Human platelets were isolated from whole blood using 50 mM Tris-HCl containg 5 mM MgCl2 (pH 7.5) and centrifuged to prepare platelet rich plasma. Washed human platelets were resuspended in 50 mM Tris-HCl containg 5 mM MgCl2 (pH 7.5). Platelets were then disrupted by sonicatio, and soluble PDE preparation was obtained by ultracentrifugation 105000 g for 60 min (4° C). […] After 20 min at 37° C., the samples were heated to 100° C. for 2 min. Ophiophagus Hannah snake venom (10 mg/ml, 10 μl) was then added and incubated at 37 C. for 10 min to convert the 5-GMP to the unchanged nucleosides, guanosine. An ion-exchange resin (200 μl) was added to bind all uncoverted cyclic GMP. After centrifuging, the supernatant was removed for determination in a liquid scintillation counter.
Assay [2] deals with rabbit corpus cavernosum smooth muscle. As to the kind of experiment: Rabbit corpus cavernosum smooth muscle relaxation, organ bath. The assay is classed as cell-based.
Excerpt: (§1) Disruption of endothelium The endothelium lining the lacunar spaces of rabbit corpus cavernosum was disrupted and/or removed by detergent treatment using a modification of a protocol for blood vessels, described elsewhere (kim N. et al., J. Clin. Invest., 88, 112–118, 1991). The intact, isolated penis was placed in a tray containing chilled physiological salt solution (PSS). A 21-guage minicatheter was inserted into each corporal body at the proximal end of the penis. A third minicatheter was inserted into the distal end, below the glans penis, where the right and left corpora communicate. While the distal and one proximal minicatheter were clamped, 3 ml of CHAPS (wt vol.^−) in saline was infused into the remaining proximal catheter. After a short interval (˜20 s), the clamped minicatheters were opened and the preparation was washed by infusion of saline. The corpora cavernosa were then removed and tested for endothelial integrity.
Tissue procurement and organ bath experiments Male rabbits were killed with pentobarbital and their penises excised rapidly and cut longitudinally into equal strips to give 3–6 segments. These segments were incubated in Kerbs-bicarbontate solution (NaCl, 118 mM; NaHCO3, 25 mM; KCl, 4.7 mM; KH2PO4, 1.2 mM; MgSO4, 1.2 mM; glucose, 11 mM; CaCl2, 2.5 mM; pH 7.3–7.4) maintained at 37° C. and aerated with 95% O2 and 5% CO2. Isometric tension was recorded with a force displacement transducer (UGO BASILE, Model 7004, Italy). Rabbit corpus cavernosum smooth muscles were stretched to a resting tension of 2 g and then contracted with phenylephrine (PE, 10 μM). Tissues were also treated with guanethidine (10 μM) to block contractions caused by noradrenaline, released from adrenergic neuron, and treated with atropine (1 μM) to prevent muscarinic effects caused by acetylcholine. When the stable constriction to phenylephrine was reached, concentration-response curves to KMUP-1 (0.001–10 μM) were constructed. Data were expressed as a percentage of the maximum contractile response to phenylephrine. To examine the possible action mechanisms of KMUP-1, the rabbit corpus cavernosum smooth muscles were pretreated with sGC (soluble guanylyl cyclase) inhibitors ODQ (1 μM), a NOS (nitric oxide synthase) inhibitor L-NAME (100 μM), a K^+ channel blocker Tetraethylammonium (TEA, 10 mM), a KATP channel blocker glibenclamide (1 μM), a voltage-dependent K^+ channel blocker 4-AP (100 μM) and Ca^2+-dpendent K^+ channel blockers apamin (1 μM) and charybdotoxin (0.1 μM) for 30 min prior to the addition of KMUP-1. To observe whether the rabbits corpus cavernosum smooth muscle relaxation of KMUP-1 are affected by a nonselective PDE (phosphodiesterase) inhibitor, we investigated the action of KMUP-1 in the presence of IBMX (0.5 μM). In another experiment, rabbit corpus cavernosum smooth muscles were preconstricted with 60 mM KCl. The KCl solution was prepared by substituting NaCl with KCl (60 mM) in an equimolar amount.
as §1, with “(kim” for “(kim N.”, “al.,” for “al., J. Clin. Invest., 88, 112–118,”, “vol.^−1)” for “vol.^−)”, “integrity. […]” for “integrity.”

The test system of assay [3] is rabbit corpus cavernosum smooth muscle cells. As to the kind of experiment: Intracellular cGMP content in rabbit corpus cavernosum smooth muscle cells. The assay is classed as cell-based. The note with it: for guanosine 3′,5′-cyclic monophosphate levels: 0.1, 1.0, 10, 100 μM. The protocol: (§2) Culture of rabbit corpus cavernosum smooth muscle cells Rabbit corpus cavernosum smooth muscles were obtained as sterile surgical specimens, the tissue was washed and cut into 1 to 2 mm pieces and placed into culture dishes with Dulbecco's modified Eagle's medium (DMEM) containing 20% fetal bovine serum (FBS), penicillin (100 U ml^−1), streptomycin (100 U ml^−1) and 2 mM Glutamine. After explants attached to the culture dish, usually 1 to 2 days, DMEM (Dulbecco's modified Eagle's medium) supplement with 10% FBS, penicillin, streptomycin, and glutamine were added. Smooth muscle cells migrated out from the explants in 3–5 days. At this time, the explants were removed, and cells were allowed to achieve confluence. Cells were detached using 0.05% trypsin, 0.02% EDTA at 37° C. for 5 minutes to establish secondary cultures. Cultures were maintained for no more than 4 passages. Cellular homogeneity was further confirmed by the presence of smooth muscle specific α-myosin and α-actin immunoreactivity. Indirect immunofluorescence staining for a variety of antigens was carried out by first plating the cells on chamber slides fixing the cells in 3.7% formaldehyde-phosphate buffered saline for 10 minutes and permeabilizing the cells with phosphate buffered saline 0.1% Triton X-100. Cells were then stained with either a mouse monoclonal antibody directed against the amino terminal 10 amino acids of α-smooth muscle actin and α-myosin (Moreland R. B. et al., J Urol., 153, 826–834, 1995).
Measurement of intracellular guanosine 3′,5′-cyclic monophosphate content Intracellular cGMP concentrations in rabbit corpus cavernosum smooth muscle cells were assayed as our previously described (Wu et al., 2001). In brief, cells were finally grown in 24-well plates (10^5 cells well^−1). […] Incubation was terminated by the addition of 6% trichloroacetic acid (TCA). Cell suspensions were sonicated and then centrifuged at 2500 g for 15 min at 4° C. Then, the supernatants were lyophilized and cGMP of each sample was determined using a commercially available radioimmunoassay kits (Amersham Pharmacia Biotech, Buckinghamshire, England).
as §2, with “Rabbit CCSMs (corpus” for “Rabbit corpus”, “smooth muscles)” for “smooth muscles”, “DMEM” for “DMEM (Dulbecco's modified Eagle's medium)”, “(Moreland” for “(Moreland R. B.”, “al.,” for “al., J Urol., 153, 826–834,”
Measurement of intracellular cyclic GMP content Intracellular cGMP concentrations in rabbit CCSM cells were assayed as our previously described (Wu et al., 2001). In brief, cells were finally grown in 24-well plates (10^5 cells well^−1). […] Incubation was terminated by the addition of 6% trichloroacetic acid (TCA). Cell suspensions were sonicated and then centrifuged at 2500 g for 15 min at 4° C. […]

Assay [4] has as its system rabbit aorta smooth muscle cells. The experiment in a line: cGMP levels in rabbit aorta smooth muscle cells. The assay is classed as cell-based. The note with it: for guanosine 3′,5′-cyclic monophosphate levels: 0.1, 1.0, 10, 100 μM, in the presence of IBMX (100 μM).
In assay [5] the test system is intracavernous pressure of rabbits. The note with it: for DT, duration of tumescence / ΔICP, peak increased intracavernous pressure: n=8.
Description: Measurement of intracavernous pressure Male rabbits were used for the investigation. After sedation with an intramuscular injection of ketamine (10 mg kg^−1), the rabbits were anaesthetized with intraperitoneal pentobarbital (30 mg kg^−1) and maintained with 10 mg kg^−1 if needed. The animals breathed spontaneously. The rabbits were then placed in the supine position, and the body temperature was maintained at 37° C. The femoral artery was cannulated for continuous monitoring of systemic arterial pressure (SAP) and heart rate (HR) via a pressure transducer (Spectramed, Model P10EZ, U.S.A.). Under sterile conditions, the skin overlying the penis was incised and the corpora cavernosum was exposed at the root of the penis. A 25-gunge needle was inserted into the corpus cavernosum smooth muscles for pressure recording. The needle was connected to a three-way stopcock, thus permitting the intracavernous injection of the drugs. The tube was filled with heparinized saline (50 IU 2 h^−1) to prevent clotting.
Normal saline in increasing volumes (0.05, 0.1, 0.2 ml) was injected in four rabbits as a control group. […] In order to minimize the effect of the previous drug, the cavernous body was flushed with 0.2 ml normal saline before each injection and the time interval between each injection was at least 1.5 h.
Measurement of intracavernous pressure Male rabbits were used for the investigation. After sedation with an intramuscular injection of ketamine (10 mg kg^−1), the rabbits were anaesthetized with intraperitoneal pentobarbital (30 mg kg^−1) and maintained with 10 mg kg^−1 if needed. The animals breathed spontaneously. The rabbits were then placed in the supine position, and the body temperature was maintained at 37° C. The femoral artery was cannulated for continuous monitoring of systemic arterial pressure (SAP) and heart rate (HR) via a pressure transducer (Spectramed, Model P10EZ, U.S.A.). Under sterile conditions, the skin overlying the penis was incised and the corpora cavernosum was exposed at the root of the penis. A 25-gunge needle was inserted into the CCSMs for pressure recording. The needle was connected to a three-way stopcock, thus permitting the intracavernous injection of the drugs. The tube was filled with heparinized saline (50 IU 2 h^−1) to prevent clotting.
Setting [6] is: in the presence of IBMX (0.5 μM).
The mark [7] stands for this setting: in the presence of IBMX (100 μM).
Where [8] appears, read: pretreatments with methylene blue (100 μM) and ODQ (10 μM).
The mark [9] stands for this setting: 0.2 mg/kg intracavernous injection.
[10] abbreviates: 0.4 mg/kg intracavernous injection.
Where [11] appears, read: 0.6 mg/kg intracavernous injection.

Read-outs that look alike come from different tables or passages of the source.

With `COc1ccccc1N1CCN(CCn2cnc3c2c(=O)n(C)c(=O)n3C)CC1` [KMUP-2, 7-[2-[4-(2-methoxyphenyl)piperazinyl]-ethyl]-1,3-dimethylxanthine], the “−log EC50 of relaxation in aortic rings” value came to 5.69±0.02 with rabbit aortic rings (KMUP-2 (0.01, 0.05, 0.1 μM) alone) and 6.61±0.12 with rabbit aortic rings (setting [6]). The “inhibition of PDE activity” value in assay [1] worked out at 21±2.1%. The “relaxant activities in rabbit CCSMs” value in assay [2] is given as “concentration-dependent relaxant activities”. Also, the “effect of combination with IBMX on CCSMs relaxations” value in assay [2] (combination with IBMX) is “additive effect”. Moreover, the “−log EC50 of relaxation” value in assay [2] (compound alone, IBMX additive experiment (FIG. 6)) is given as 7.58±0.02; in assay [2] (setting [6]) it was 8.37±0.03. Besides, the “guanosine 3′,5′-cyclic monophosphate levels” value in assay [3] (setting [7]) and in assay [4] was “significantly increased” each time. The “cGMP levels after methylene blue and ODQ pretreatments” value in assay [3] (setting [8]) and in assay [4] (setting [8]) was “significantly inhibited” throughout.
Regarding `CCCc1nn(C)c2c(=O)[nH]c(-c3cc(S(=O)(=O)N4CCN(C)CC4)ccc3OCC)nc12` [sildenafil, reference compound], the “DT, duration of tumescence” value in assay [5] (setting [9]) was found to be 19 ± 3.32 min; in assay [5] (setting [10]), 24 ± 3.45 min; in assay [5] (setting [11]), 28 ± 4.59 min. Moreover, the entries for the “ΔICP, peak increased intracavernous pressure” value in assay [5] (setting [9]), in assay [5] (setting [10]) and in assay [5] (setting [11]) were 28 ± 3.21 mmHg, 32 ± 4.05 mmHg and 40 ± 11.05 mmHg, respectively. In addition, the “intracavernous pressure, dose dependence” value in assay [5] (0.2, 0.4, 0.6 mg kg−1 intracavernous) was “dose-dependent elevations”. Moreover, in assay [3] (0.01–10 μM, in the presence of IBMX (100 μM)), the cGMP levels entry is “increased the cGMP levels”. In addition, the “guanosine 3′,5′-cyclic monophosphate levels” value in assay [3] (setting [7]) and in assay [4] was “significant elevation” each time.

The record behind these values is US6979687B1, “Theophylline-based soluble guanylyl cyclase activators KMUP-1 analogues enhanced cyclic GMP and K+ channel activities on rabbit corpus cavernosum smooth muscle and intercavernous pressure activities” (Cho-Jan Liang, priority 2002, dated 2005).
